Source: patent US11833137B2, “Substituted chromenones, IRE1 inhibitors, and methods of using same” (The Wistar Institute, priority 2018, dated 2023)
Entries after “also recorded” stand apart in the source; their conditions may differ.

Columns and labels:
[1] = tested on: XBP-1s expression, 5TGM1 cells; experiment: XBP-1s immunoblot in 5TGM1 multiple myeloma cells; type: cell-based, mouse; settings: for inhibition of XBP-1s expression, short term: 2.5 μM for 1, 2 or 4 h; for suppression of XBP-1s expression, long term: 10 μM for a course of 3 days
Description: 5TGM1 mouse multiple myeloma cells, primary mouse B cells, primary mouse Eμ-TCL1 CLL cells, and human CLL cell lines (MEC2 and WaC3) were cultured at 37° C. in a 5% CO2 incubator using RPMI 1640 media (Gibco) supplemented with 10% heat-inactivated FBS, 2 mM L-glutamine, 100 U/mL penicillin G sodium, 1 mM sodium pyruvate, 0.1 mM non-essential amino acids, 100 μg/mL streptomycin sulfate and 0.1 mM β-mercaptoethanol (β-ME).
(§1) Cells were lysed using RIPA buffer (10 mM Tris-HCl, pH 7.4, 150 mM NaCl, 1% NP-40, 0.5% sodium deoxycholate, 0.1% SDS, and 1 mM EDTA) supplemented with protease inhibitors (Roche). Protein concentrations were determined by BCA assays (Pierce).
(§2) Samples were boiled in SDS-PAGE sample buffer (62.5 mM Tris-HCl, pH 6.8, 2% SDS, 10% glycerol, 0.1% bromophenol blue) with β-ME and analyzed by SDS-PAGE. Proteins were transferred to nitrocellulose membranes, blocked in 5% nonfat milk (wt/vol in PBS), and immunoblotted with indicated primary antibodies and appropriate horseradish peroxidase-conjugated secondary antibodies. Immunoblots were developed using Western Lighting Chemiluminescence Reagent (PerkinElmer).
To develop inhibitors with improved potency to target the IRE1/XBP-1 pathway, tricyclic chromenone-based IRE1 RNase inhibitors with different amine group (R^1) were synthesized and compared: allyloxycarbonyl (alloc) in B-H09 (1), —H in C-B06 (2), and —CH3 in C-D06 (3) (FIG. 1A). 5TGM1 multiple myeloma cells were chosen to evaluate inhibitory effects of these inhibitors because they have constitutively activated IRE1/XBP-1 pathways.

[2] = tested on: MEC2 cells; experiment: Cell proliferation XTT assay, MEC2; type: cell-based, human; settings: indicated concentrations, 24 h
[3] = Fluorescence stability (decomposition) in aqueous solution; type: physicochemical; settings: 37° C.
Description: (FIG. 2B) 5TGM1 cells were treated with DMSO or with 20 μM 2, 4, 3, or 7 dissolved in DMSO for 3 days and subjected to XTT assays. Percentages of growth were determined by comparing treated groups with control groups (DMSO). Each data point derived from four independent groups receiving exactly the same treatment was plotted as mean±SD. Results are representative of three independent experiments. […] The values of I/I0 were plotted as a function of time and shown in the inset. I0 was the initial fluorescence intensity of 4 at 0 h. […] The values of I/I0 were plotted as a function of time and shown in the inset. I0 was the initial fluorescence intensity of 5 at 0 h. […] (FIG. 2G) The decomposition rates of 7 and 8 were plotted as a function of time in RPMI media incubated at 37° C. Aliquots were analyzed by HPLC and the peaks integrated.
FIGS. 5A-5J illustrate the finding that installation of a boronate cage cleavable by H2O2 stabilizes the 1,3-dioxane acetal protective group of D-F07 to allow for temporal inhibition of XBP-1s upon contact with H2O2. (FIG. 5A) A scheme showing that installation of a boronate-caged group stabilizes the 1,3-dioxane acetal protective group to allow for H2O2-mediated release of intact D-F07. (FIG. 5B) The fluorescence of BC-D-F07a (2.5 μM in the DMSO/PBS solution (v/v=1:99), Ex=360 nm) increases upon incubation with 0 to 200 μM hydrogen peroxide at room temperature for 1 h. (FIG. 5C) The fluorescence of BC-D-F07b (2.5 μM in the DMSO/PBS solution (v/v=1:99), Ex=360 nm) increases upon incubation with 0 to 2 mM hydrogen peroxide at 37° C. for 1 h. […] I0 was the initial fluorescence intensity of D-F07, BC-D-F07a or BC-D-F07b at 0 h. (FIG. 5E) The levels of hydrogen peroxide produced by 5TGM1, 72-h LPS-stimulated primary CLL, MEC2, and WaC3 cells were measured by Amplex Red with or without the addition of extracellular catalase (500 U/mL). (FIG. 5F) 5TGM1 cells were treated with BC-D-F07a at increasing concentrations for 24 h, lysed, and analyzed for the expression of indicated proteins by immunoblots. (FIG. 5G) CD5+ CLL cells purified from spleens of Eμ-TCL1 mice were stimulated with […], subsequently treated with BC-D-F07a at 20 μM for 16 h, and then incubated with hydrogen peroxide at indicated concentrations for another 4 h. Cells were lysed and analyzed for the expression of indicated proteins by immunoblots. […] Cells were lysed and analyzed for the expression of indicated proteins by immunoblots. […] Percentages of growth were determined by comparing treated groups with control groups (DMSO). […]
UV-vis and fluorescence spectra were carried out on a BioTek SYNERGY™ NEO2 instrument (96 well plate).

[4] = tested on: WaC3 cells; experiment: Cell proliferation XTT assay, WaC3; type: cell-based, human; settings: 20 μM for a course of 3 days
[5] = Compound degradation HPLC assay; type: physicochemical; settings: 37° C.
Description: A 20 mM DMSO stock solution of analyte compounds (7, 8, D-F07, PC-D-F07 and TC-D-F07) were diluted to 400 μM with PBS, pH 7.4, or to 800 μM with RMPI plus 10% FBS culture media (experiments with TC-D-F07 were performed using RPMI without FBS). After incubation at 37° C., aliquots at various time points were injected onto an analytical HPLC instrument and the peaks integrated (UV monitored at 220 nm). Intact compound relative to t=0 was plotted as a function of time.

[6] = tested on: 5TGM1 cells; experiment: Cell proliferation XTT assay, 5TGM1; type: cell-based, mouse
Description: 5TGM1 cells were suspended in phenol red-free RPMI media, seeded in 96-well cell culture plates, and treated with indicated IRE1 inhibitors (20 μM, unless indicated otherwise). At indicated time points, cells were spun down and cell proliferation was assessed by XTT assays (Roche) according to the manufacturer's instructions. Briefly, 50 μl XTT labeling reagent, 1 μl electron-coupling reagent, and 100 μl phenol red-free RPMI media were combined and applied to each well of the 96-well plates. Cells were incubated for 4 h in a CO2 incubator to allow for the yellow tetrazolium salt XTT to be cleaved by mitochondrial dehydrogenases of metabolically active cells to form the orange formazan dye, which can be quantified at 492 nm using a BioTek SYNERGY™ NEO2 Multimode Reader.

[7] = tested on: XBP-1s expression, LPS-stimulated primary mouse B cells; experiment: XBP-1s immunoblot in LPS-stimulated primary B cells; type: cell-based; settings: 2.5 or 5 μM for 2 h
Description: FIG. 8 illustrates chemical structures of 6, 4, 7, 8, and 9. Primary B cells purified from spleens of wild-type mice were stimulated with LPS for 72 h, subsequently treated with indicated inhibitors at 2.5 or 5 μM for 2 h, lysed, and analyzed for the expression of indicated proteins by immunoblots.
as §1, §2
LPS-stimulated primary mouse B cells were similarly treated with the same inhibitors at 2.5 or 5 μM for 2 h. […] HPLC degradation experiments confirmed that this was indeed the case (FIG. 2G).

Question: For N[C@@H](CSc1ccc([N+](=O)[O-])cc1[N+](=O)[O-])C(=O)O [Compound 12, (S-2,4-Dinitrophenyl)cysteine], which “expression of XBP-1s (ER stress induction)” value ([1]; 10 μM, 0 to 24 h) is on record?
Answer: time-dependent increased expression of XBP-1s

Question: And the “cytotoxicity / growth inhibition (XTT)” value [2]?
Answer: not cytotoxic to MEC2 cells

Question: Which “hydrolysis of 1,3-dioxane acetal by fluorescence decay” value ([3]; aqueous solution, 0 to 48 h, versus D-F07) does the source give for COc1cc2c3c(c(=O)oc2c(C2OCCCO2)c1B1OC(C)(C)C(C)(C)O1)CN(C)CC3 [BC-D-F07b, 7-(1,3-dioxan-2-yl)-9-methoxy-3-methyl-8-(4,4,5,5-tetramethyl-1,3,2-dioxaborolan-2-yl)-3,4-dihydro-1H-chromeno[3,4-c]pyridin-5(2H)-one] here?
Answer: stabilized the 1,3-dioxane acetal protecting group

Question: For COc1cc2c3c(c(=O)oc2c(/C=N/NC(C)=O)c1O)CN(C)CC3 [Compound 10, (E)-N′-((8-hydroxy-9-methoxy-3-methyl-5-oxo-1,3,4,5-tetrahydro-2H-chromeno[3,4-c]pyridin-7-yl)methylene)acetohydrazide], which “inhibition of XBP-1s expression, short term” value (“inhibition … short term” below) [1] is on record?
Answer: suppressed the expression of XBP-1s more rapidly than 8

Question: What about the “suppression of XBP-1s expression, long term” value (shortened to “suppression … long term”) [1] of the same compound?
Answer: exhibited a long-term inhibitory effect; also recorded: slightly recovered in cells treated with 10 for 3 days

Question: What about the “growth suppression (XTT)” value [4] of the same compound?
Answer: initially more potent than 7 and 8 in suppressing WaC3 cell growth; also recorded: incapable of continuously inhibiting the growth of WaC3 cells

Question: With CC1(C)COC(c2c(O)ccc3c4c(c(=O)oc23)CNCC4)OC1 [Compound 5, 7-(5,5-dimethyl-1,3-dioxan-2-yl)-8-hydroxy-3,4-dihydro-1H-chromeno[3,4-c]pyridin-5(2H)-one] as the compound, how does the “fluorescence intensity remaining (decomposition)” value ([3]; PBS with 1% DMSO, 48 h, from 100%) read?
Answer: approximately 60%

Question: Which “inhibition … short term” value [1] does the source give for CN1CCc2c(c(=O)oc3c(C=O)c(O)ccc23)C1 [Compound 3] here?
Answer: began to lose its inhibitory effect within 4 h

Question: What about the “inhibition of XBP-1s expression” value ([1]; 10 μM for 0, 3, 6, 12 or 24 h) of the same compound?
Answer: rapidly inhibited the expression of XBP-1s; also recorded: much better long-term inhibitory activities than 1

Question: And the “suppression … long term” value [1]?
Answer: recovered significantly in cells treated for 2 days

Question: What about the “overall comparison of inhibition of IRE-1 / XBP-1s expression in whole cells” value ([1]; summary statement) of the same compound?
Answer: most efficient aldehyde compounds in inhibiting IRE-1 in intact cells

Question: What does the source list for COc1cc2c3c(c(=O)oc2c(C2OCCCO2)c1OC(C)c1ccc(C(=O)OCC[Si](C)(C)C)cc1[N+](=O)[O-])CN(C)CC3 [PC-D-F07, 2-(trimethylsilyl)ethyl 4-(1-((7-(1,3-dioxan-2-yl)-9-methoxy-3-methyl-5-oxo-1,3,4,5-tetrahydro-2H-chromeno[3,4-c]pyridin-8-yl)oxy)ethyl)-3-nitrobenzoate]?
Answer: suppression of XBP-1s after removal of compound from media ([1]; 10 μM 4 h, washed, UV 10 min, 8 h culture): suppression of XBP-1s expression; stability (HPLC) ([5]; PBS, 48 h): completely stable; stability (HPLC) ([5]; RPMI media, 96 h): completely stable

Question: Which “suppression of XBP-1s expression” value ([1]; 2.5 μM, 3 h) does the source give for COc1cc2c3c(c(=O)oc2c(C2OCCCO2)c1OS(=O)(=O)c1ccc([N+](=O)[O-])cc1[N+](=O)[O-])CN(C)CC3 [TC-D-F07, 7-(1,3-dioxan-2-yl)-9-methoxy-3-methyl-5-oxo-1,3,4,5-tetrahydro-2H-chromeno[3,4-c]pyridin-8-yl 2,4-dinitrobenzenesulfonate] here?
Answer: significantly suppress the expression of XBP-1s

Question: What about the “levels of XBP-1s, time course” value ([1]; 2.5 μM, 12 h) of the same compound?
Answer: the levels of XBP-1s began to recover

Question: What about the “levels of XBP-1s, time course” value ([1]; 10 μM, 0 to 12 h) of the same compound?
Answer: initially increased after 3-h treatment and subsequently decreased in response to continuous 12-h treatment

Question: What about the “levels of XBP-1s” value ([1]; 10 and 20 μM, 3 h) of the same compound?
Answer: levels of XBP-1s increased

Question: What about the “cytotoxicity (XTT)” value ([6]; 0, 2.5, 5, 10 or 20 μM, 24 h) of the same compound?
Answer: more cytotoxic than D-F07

Question: And the “cytotoxicity / growth inhibition (XTT)” value [2]?
Answer: potently inhibited the growth of these cells

Question: And the intact compound ([5]; 4-h incubation in both PBS and RPMI media)?
Answer: 90%

Question: What about the “decomposition rate (HPLC) versus D-F07” value ([5]; PBS) of the same compound?
Answer: slower decomposition rate

Question: Which “inhibition … short term” value [1] does the source give for CC(=O)N/N=C/c1c(O)ccc2c3c(c(=O)oc12)CN(C)CC3 [Compound 8, (E)-N′-((8-hydroxy-3-methyl-5-oxo-1,3,4,5-tetrahydro-2H-chromeno[3,4-c]pyridin-7-yl)methylene)acetohydrazide] here?
Answer: rapidly inhibited XBP-1s; also recorded: effectively inhibit the expression of XBP-1s for longer than 4 h; also recorded: inhibited the expression of XBP-1s more rapidly than 7

Question: And the “suppression … long term” value [1]?
Answer: lost its inhibitory effect after treatment for 2 days

Question: What about the “suppression of XBP-1s expression” value [7] of the same compound?
Answer: rapidly suppressed the expression of XBP-1s

Question: And the “hydrolysis rate (HPLC degradation)” value ([5]; RPMI media)?
Answer: faster hydrolysis relative to 7

Question: With CN1CCc2c(c(=O)oc3c(C4OCCCO4)c(O)ccc23)C1 [Compound 7, 7-(1,3-dioxan-2-yl)-8-hydroxy-3-methyl-1,2,3,4-tetrahydro-5H-chromeno[3,4-c]pyridin-5-one] as the compound, how does the “suppression … long term” value [1] read?
Answer: continuously suppressed even after 3-day treatment; also recorded: more effective than 8 in suppressing the expression of XBP-1s for a longer term

Question: And the “concentration that effectively blocks XBP-1s expression” value ([1]; 24 h)?
Answer: 10 µM

Question: And the “growth inhibition / cytotoxicity (XTT)” value ([6]; 20 μM for a course of 3 days)?
Answer: more potent than their respective aldehyde counterparts
